In PubChem BioAssay AID489035 (Sanford-Burnham Center for Chemical Genomics, 2010):
Calls of active or inactive are those of the source. The rule behind the calls is not given here.

Test system: Jurkat NF-kB reporter, TCR-induced, luciferase luminescence
Assay: inhibitors of TCR-driven NF-kB activation, dose response, Jurkat cells, luminescence (AID 489035)

Compound | IC50
O=C(Nc1ccc(S(=O)(=O)N2CCCC2)cc1)c1ccc(CN2CCc3ccccc3C2)cc1 | > 80 µM (inactive)
CCn1nc(C)c(CNC(=O)c2ccc(OC3CCN(Cc4ccccn4)CC3)cc2)c1C | > 80 µM (inactive)
Cc1ccc2[nH]c3c(c2c1)CCCC3NC(=O)CCl (configuration not stated) | 0.32 µM
CC(=O)NC(c1ccc(C(C)C)cc1)c1ccc2cccnc2c1O (configuration not stated) | 3.06 µM
COc1cc(C2=NOC(C(=O)NCc3ccc(F)cc3)C2)cc(OC)c1OC (configuration not stated) | 6.16 µM
CCOC(=O)c1[nH]c(C)c(C(=O)Nc2cc(OC)ccc2OC)c1C | > 80 µM (inactive)
CC[C@@]1(O)C(=O)OCc2c1cc1n(c2=O)Cc2cc3c(N)cccc3nc2-1 | < 0.16 µM
COC(=O)c1[nH]c2c(c1C)C(=O)CC(c1cccs1)C2 (configuration not stated) | > 80 µM (inactive)
COC(=O)C(Cc1ccc(N(CCCl)CCCl)cc1)N=Cc1ccccc1O (configuration not stated) | 0.65 µM
COc1cc(C(=O)N/N=C/c2cc([N+](=O)[O-])cs2)cc(OC)c1OC | > 80 µM (inactive)
COc1ccc(OCC(=O)Nc2ccccc2N2CCCCC2)cc1 | > 80 µM (inactive)
Cc1ccc(Oc2ccc(OCC(=O)Nc3ccncc3)cc2)cc1 | 19.3 µM
COc1cccc(N2CCN(C(=O)c3ccc(CS(=O)c4ccccc4Cl)o3)CC2)c1 (configuration not stated) | > 80 µM (inactive)
COc1cc(C2c3cc4c(cc3C(OC3OC5COC(c6cccs6)OC5C(O)C3O)C3COC(=O)C23)OCO4)cc(OC)c1O (configuration not stated) | 0.68 µM
COc1ccc(C(=O)N2CCN(c3ccc([N+](=O)[O-])c(NCCc4ccc(OC)c(OC)c4)c3)CC2)cc1 | > 80 µM (inactive)
C[C@]12CC[C@H](O)C[C@H]1CC[C@@H]1[C@@H]2CC[C@]2(C)[C@@H](C3=CC(=O)OC3)CC[C@]12O | 3.53 µM
COc1ccc(-c2csc(NC(=O)C3CCN(c4ncnc5sc(C)c(C)c45)CC3)n2)cc1OC | > 80 µM (inactive)
Cc1ccc(NC(=O)c2cc3ccccc3oc2=O)cc1S(=O)(=O)N(C)C | 0.98 µM
Cc1csc2sc(-c3ccnc(SCC(=O)NCc4ccccc4)n3)c(C)c12 | 17 µM
COC(=O)c1ccccc1NC1=C/C(=N\S(=O)(=O)c2cccs2)c2ccccc2C1=O | 2.91 µM
CC1(C)Cc2nc3sc4c(=O)n(CC(=O)NCc5ccccc5)cnc4c3cc2CO1 | > 80 µM (inactive)
COC(=O)c1c(NC(=O)c2ccc([N+](=O)[O-])o2)sc2c1CCN(C(C)C)C2 | 6.76 µM
CCCCCCCCCCn1ccc(=N)cc1 | 3.84 µM

Compound | IC50
C/C=C(\C)C(=O)N[C@@H](c1ccccc1)[C@@H](O)C(=O)O[C@H]1C[C@@]2(O)[C@@H](OC(=O)c3ccccc3)C3[C@](C)(C(=O)[C@H](OC(C)=O)C(=C1C)C2(C)C)[C@H](O)C[C@H]1OC[C@@]31OC(C)=O (some centres not stated) | < 0.16 µM
COc1ccc(/C=N/Nc2cc(C)nc3ccc(OC)cc23)c(OC)c1 | 2.4 µM
COc1cc(CC(=O)OCC(=O)c2ccc3c(c2)OCCO3)cc(OC)c1OC | > 80 µM (inactive)
CCc1cc2c(=O)nc3n(c2s1)Cc1ccccc1/C3=C(/O)c1cccc([N+](=O)[O-])c1 | > 80 µM (inactive)
COc1ccc(Nc2ncnc3ccc(Br)cc23)c(OC)c1 | 22 µM (inactive)
COc1cc([C@@H]2c3cc4c(cc3[C@@H](OC)[C@H]3COC(=O)[C@H]23)OCO4)cc(OC)c1O | > 80 µM (inactive)
CC1(C)CC(N2CCN(C(c3ccccc3)c3ccccc3)CC2)=CC(=[N+]2CCCCC2)C1 | 15.9 µM
O=C(N/N=C/c1c(O)ccc2ccccc12)c1ccc(Br)o1 | 60.7 µM (inactive)
Cc1ccc(O)c(NC(=O)c2cc(-c3ccco3)on2)c1 | > 80 µM (inactive)
Cc1nc(SCC(=O)Nc2nc3ccccc3s2)c(C#N)c(C)c1C | 0.75 µM
c1cc2c(cc1C1=NNC(=NC3CC3)SC1)OCCO2 | 0.26 µM
O=C(N[C@@H](Cc1ccccc1)C(=O)CCl)OCc1ccccc1 | 0.54 µM
Cc1cc(C)cc(C(=O)N2CC(=O)Nc3ccccc32)c1 | 15.7 µM
COC(=O)c1ccc(C)c(NS(=O)(=O)c2ccc3c(c2)OCCO3)c1 | > 80 µM (inactive)
CN(Cc1ccccc1)C1=CC(=[N+]2CCCCC2)CC(C)(C)C1 | 20.3 µM (inactive)
Cc1ccc(C)c(CSc2nc3[nH]ncc3c(=O)[nH]2)c1 | 39.2 µM (inactive)
Cc1ccc(O)c(N=Nc2nccs2)c1 | 1.79 µM
Cc1ccc2[nH]c(-c3cccc(F)c3)cc(=O)c2c1 | > 80 µM (inactive)
CCOC(=O)CC1CCCCN1C(=O)c1cc(COc2cccc3cnccc23)on1 (configuration not stated) | 6.39 µM
O=C(N/N=C/c1ccccc1Cl)c1[nH]c2ccc(Br)cc2c1-c1ccccc1 | 6.27 µM
CCCCCCCCCCCCCCCC[n+]1cccc(C(=O)N(CC)CC)c1 | 3.02 µM
Cc1c(C(=O)OCc2ccccc2)[nH]c2c1C(=O)CC(c1ccco1)C2 (configuration not stated) | > 80 µM (inactive)
O=C(Nc1cccc2ccccc12)OC1C=CS(=O)(=O)C1 (configuration not stated) | 1.06 µM

Compound | IC50
Clc1ccc2c(c1)C(C1=NCCN1)c1ccccc1CS2 (configuration not stated) | 58.5 µM (inactive)
Cc1ccc(-c2cc(-c3ccc(C)cc3)[n+](-c3ccccc3)c(-c3ccc(C)cc3)c2)cc1 | 6.13 µM
Cc1ccc(C(=O)Nc2cccc(C(=O)O)c2)cc1 | 3.03 µM
CN1/C(=C\C(=O)C[n+]2ccc3ccccc3c2)C(C)(C)c2ccccc21 | 38 µM (inactive)
NC(=O)CC(NC(=O)c1ccc(Br)cc1)c1ccc(N2CCCCCC2)c([N+](=O)[O-])c1 (configuration not stated) | 2.54 µM
C[C@@H]1O[C@@H](O[C@H]2C[C@@H](O)[C@]3(CO)[C@@H]4C(CC[C@]3(O)C2)[C@@]2(O)CC[C@H](C3COC(=O)C3)[C@@]2(C)C[C@H]4O)[C@H](O)[C@H](O)[C@H]1O (some centres not stated) | 23.3 µM (inactive)
CCCC(=O)NC(c1ccc(N(C)C)cc1)c1ccc2cccnc2c1O (configuration not stated) | 6.58 µM
CCCCN=C[C@]12CCC(O)CC1(O)CCC1[C@@H]2CC[C@]2(C)[C@H](C3C=CC(=O)O3)CCC12O (some centres not stated) | > 80 µM (inactive)
Cc1ccsc1/C=N/NC(=O)c1cc(-c2ccncc2)nc2ccccc12 | 35.1 µM (inactive)
C=C(C)[C@@]12OC3(c4ccccc4)O[C@@H]1C1[C@@H]4O[C@]4(CO)[C@@H](O)[C@]4(O)C(=O)C(C)=C[C@H]4[C@@]1(O3)[C@H](C)[C@H]2OC(=O)/C=C/C=C/c1ccccc1 (some centres not stated) | 27.9 µM (inactive)
COc1cc(NS(=O)(=O)c2ccc(C)cc2)c2ncccc2c1 | 2.12 µM
O=C(CSc1nnc(Cn2nnc3ccccc32)o1)N(Cc1ccc(F)cc1)c1ccccc1 | > 80 µM (inactive)
CCOC(=O)Nc1nc(-c2ccccc2)c(C(=O)c2ccc(Cl)cc2)s1 | 4.16 µM
Cc1cccc(N2CCN(C(=O)c3ccc4[nH]c(C)c(C)c4c3)CC2)c1C | > 80 µM (inactive)
COc1ccc(C)cc1NS(=O)(=O)c1ccc(-c2cnc(C3CC3)o2)cc1 | > 80 µM (inactive)
CCN(CC)c1ccc(/C=C/c2ccc3ccc(OC)cc3[n+]2CC)cc1 | 51.9 µM (inactive)
Cc1nn(C)c(C)c1CN(Cc1nc(CCC(C)C)no1)C(C)C | > 80 µM (inactive)
CC(=O)c1ccc(Oc2cc(C)nc(-n3nc(C)cc3C)n2)cc1 | 13.5 µM
COc1ccc(CCN2C(=O)C3C4C=CC(C3C2=O)C2C(=O)N(CCc3ccc(OC)c(OC)c3)C(=O)C42)cc1OC (configuration not stated) | > 80 µM (inactive)
COc1cc(-c2noc(C)c2/C=C/c2cccc([N+](=O)[O-])c2)cc(OC)c1OC | > 80 µM (inactive)
CCOC(=O)c1[nH]c(C)c(C(=O)Nc2ccccc2C)c1C | < 0.16 µM
